Experimental data reported in patent US9144594B2, “Cathepsin L mediated diseases and associated methods and products” (University of Miami, priority 2005, dated 2015).

Legend:
[1] = tested on: dynamin-dynamin interactions; assay: FLIM analysis of dynamin-dynamin interactions (self-assembly) in podocytes; type: cell-based, mouse; settings: for dynamin self-assembly by FLIM, in words: podocytes pretreated
Protocol: In one embodiment the cell-based assay to monitor dynamin-dynamin interactions is performed on a cultured mouse podocyte cell line and the readout of dynamin self-assembly using fluorescence lifetime imaging microscopy (FLIM). FLIM is based on the fluorescence resonance energy transfer (FRET) between the donor and acceptor that shortens the lifetime of the donor if the acceptor distance is within ≈100 Å (10 nm). […] The assay is based on overexpressing dynamin in podocytes, and subsequently staining fixed cells with monoclonal anti-dynamin antibodies that have been conjugated with donor or acceptor florophores. In one embodiment of the invention, Alexa-488 is used as the donor florophore and Alexa-568 is used as the acceptor florophore. In yet another embodiment the donor florophore is dynamin conjugated enhanced-cyan fluorescence protein (ECFP) and the acceptor is dynamin conjugated enhanced yellow-fluorescence protein (EYFP). It will be appreciated by the person of ordinary skill in the art that numerous combinations of FRET donor and acceptors can be used, which are readily available and known. In one embodiment, the FLIM assay is carried out in COS cells and the donor can be selected from the list consisting of: ECFP-WT, ECFP-1690K, ECFP-K44A, ECFP-K694A, and the -acceptor can be selected from the list consisting of: EYFP, EYFP-WT, EYFP-K44A, EYFP-1690K, EYFP-K694A. In yet another embodiment the FLIM assay is performed in podocytes and the donor is GTPase-Alexa488 and the acceptor is selected from the list consisting of: DAM-Alexa568, GTPase-Alexa568, and Hudyl-Alexa568. Cells are stained by mixing both donor and acceptor florophores in equal amounts, and examining the spatially-restricted lifetime shortening in cells detects the localization of dynamin-dynamin interactions in cells. Since dynamin-dynamin interactions are vital for the function of the podocyte, it will be appreciated by the person of ordinary skill in the art that this assay can now be used to screen peptides, small molecules or drugs which can affect these molecular interactions. For example such molecules are cytocholasin D, jasplakinolide, colchisine, dynK44A, dynK694A, dynWT, dynI690K, dynR725A (SEQ ID NO.4), dynL356Q, G358V, (SEQ ID NO.3) any combination thereof, etc.
In order to test the hypothesis that self-assembly of dynamin was protecting its cathepsin L processing in cultured podocytes, dynamin self-assembly in live cells was examined using fluorescence lifetime imaging microscopy (FLIM). FLIM is based on the fluorescence resonance energy transfer (FRET) between the donor and the acceptor that shortens the lifetime of the donor if the acceptor distance is within ≈100 Å (10 nm). […] A FLIM-assay was developed that specifically detects dynamin self-assembly into the higher order structures in podocytes. The assay is based on overexpressing dynamin in podocytes, and subsequently staining fixed cells with monoclonal anti-dynamin antibodies that have been conjugated with either Alexa-488 (donor florophore) or Alexa-568 (acceptor florophore). Cells are stained by mixing both florophores in equal amounts, and examining lifetime of Alexa-488. […] Importantly, FRET only occurred in the vicinity of the membrane. […] Thus, both dominant activating mutants, dynK694A and dynR725A, are impaired for assembly into a supramolecular structures in podocytes under normal conditions. […] Loss of FRET measured FLIM correlates with the loss of p40 proteolytic fragment in cultured podocytes. And presence of p40 in cells expressing dynR725A under normal conditions correlates with the lack of dynR725A assembly detected by FLIM. The opposite is true for the dynWT; lack of p40 under control conditions when FLIM is present, and appearance of the p40 upon LPS treatment with no measurable FRET. […] Finally, proteolytic processing of dynamin after LPS treatment is also observed in vivo. […]

[2] = tested on: dynamin-dynamin interactions; assay: FLIM analysis of dynamin-dynamin interactions in live COS cells; type: cell-based; settings: for dynamin-dynamin interactions measured by FLIM, in words: COS cells pre-treated; for Mean Lifetime (γ1) ps: Table 3
From the text: FLIM is based on the fluorescence resonance energy transfer (FRET) between the donor and acceptor that shortens the lifetime of the donor if the acceptor distance is within ≈100 Å (10 nm). […] To this end, dynamin was tagged with either ECFP or EYFP on its N- and C-termini. Fusion proteins were expressed in COS cells, because these cells are flattened and have minimal background autofluorescence, which allows clear visualization of cells by wide-field microscopy.
The observed decrease in fluorescence lifetime of CFP-dynamin in cells expressing EYFP-dynamin could result from interactions between dynamin monomers within tetramers/dimers, or from interactions between assembled tetramers/dimmers into higher order structures (FIG. 8C). To distinguish these two possibilities, we used FLIM to examine dynI690K. […] The longer average lifetimes of dynI690K than dynwt argue strongly that the assay detects higher order dynamin self-assembly and not tetramer formation.

[3] = donor CFP-WT, acceptor YFP-WT, cells treated with the substance

| Molecule | Mean Lifetime (γ1) ([1]; Table 4, donor GTPase-a488, acceptor Hudy1-a568, in ps) | dynamin self-assembly by FLIM, in words [1] | dynamin-dynamin interactions measured by FLIM, in words [2] | Mean Lifetime (γ1) ps [2, 3] | Mean Lifetime (γ1) ps ([2]; acceptor YFP not fused to dynamin) | Mean Lifetime (γ1) ps ([2]; donor alone, no acceptor) | Mean Lifetime (γ1) ps ([2]; acceptor YFP fused to the same dynamin variant) |
| --- | --- | --- | --- | --- | --- | --- | --- |
| C/C1=C\[C@H](C)C[C@H](C)OC(=O)C[C@H](c2ccc(O)cc2)NC(=O)[C@@H](Cc2c(Br)[nH]c3ccccc23)N(C)C(=O)[C@H](C)NC(=O)[C@@H](C)C1 [Jaspl., jasplakinolide, reference compound] | 2254 ± 58 | did not effect dynamin self-assembly at the membrane | had no effect | 845 ± 263 ps |  |  |  |
| C=C1[C@@H](C)[C@H]2[C@H](Cc3ccccc3)NC(=O)[C@]23[C@H](OC(C)=O)/C=C/[C@@](C)(O)C(=O)[C@@H](C)C/C=C/[C@H]3[C@@H]1O [Cyto. D, cytochalasin D] |  | decrease in the lifetime of alexa 488 is detected through the cytoplasm | significantly promoted dynamin-dynamin interactions | 510 ± 29 ps |  |  |  |
| CFP-1690K: dynI690K tagged with ECFP (protein, left off: large carriers, dynI690K tagged with ECFP) MGNRGMEDLIPLVNRLQDAFSAIGQNADLDLPQIAVVGGQSAGKSSVLENFVGRDFLPRGSGIVTRRPLVLQLVNATTEYAEFLHCKGKKFTDFEEVRLEIEAETDRVTGTNKGISPVPINLRVYSPHVLNLTLVDLPGMTKVPVGDQPPDIEFQIRDMLMQFVTKENCLILAVSPANSDLANSDALKVAKEVDPQGQRTIGVITKLDLMDEGTDARDVLENKLLPLRRGYIGVVNRSQKDIDGKKDITAALAAERKFFLSHPSYRHLADRMGTPYLQKVLNQQLTNHIRDTLPGLRNKLQSQLLSIEKEVEEYKNFRPDDPARKTKALLQMVQQFAVDFEKRIEGSGDQIDTYELSGGARINRIFHERFPFELVKMEFDEKELRREISYAIKNIHGIRTGLFTPDMAFETIVKKQVKKIREPCLKCVDMVISELISTVRQCTKKLQQYPRLREEMERIVTTHIREREGRTKEQVMLLIDIELAYMNTNHEDFIGFANAQQRSNQMNKKKTSGNQDEILVIRKGWLTINNIGIMKGGSKEYWFVLTAENLSWYKDDEEKEKKYMLSVDNLKLRDVEKGFMSSKHIFALFNTEQRNVYKDYRQLELACETQEEVDSWKASFLRAGVYPERVGDKEKASETEENGSDSFMHSMDPQLERQVETIRNLVDSYMAIVNKTVRDLMPKTIMHLMKNNTKEFIFSELLANLYSCGDQNTLMEESAEQAQRRDEMLRMYHALKEALSIIGDINTTTVSTPMPPPVDDSWLQVQSVPAGRRSPTSSPTPQRRAPAVPPARPGSRGPAPGPPPAGSALGGAPPVPSRPGASPDPFGPPPQVPSRPNRAPPGVPSRSGQASPSRPESPRPPFDL |  |  |  |  | 1838 ± 309 ps | 2292 ± 297 ps |  |
| CFP-K44A: dynK44A tagged with ECFP (protein, left off: large carriers, dynK44A tagged with ECFP) MGNRGMEDLIPLVNRLQDAFSAIGQNADLDLPQIAVVGGQSAGASSVLENFVGRDFLPRGSGIVTRRPLVLQLVNATTEYAEFLHCKGKKFTDFEEVRLEIEAETDRVTGTNKGISPVPINLRVYSPHVLNLTLVDLPGMTKVPVGDQPPDIEFQIRDMLMQFVTKENCLILAVSPANSDLANSDALKVAKEVDPQGQRTIGVITKLDLMDEGTDARDVLENKLLPLRRGYIGVVNRSQKDIDGKKDITAALAAERKFFLSHPSYRHLADRMGTPYLQKVLNQQLTNHIRDTLPGLRNKLQSQLLSIEKEVEEYKNFRPDDPARKTKALLQMVQQFAVDFEKRIEGSGDQIDTYELSGGARINRIFHERFPFELVKMEFDEKELRREISYAIKNIHGIRTGLFTPDMAFETIVKKQVKKIREPCLKCVDMVISELISTVRQCTKKLQQYPRLREEMERIVTTHIREREGRTKEQVMLLIDIELAYMNTNHEDFIGFANAQQRSNQMNKKKTSGNQDEILVIRKGWLTINNIGIMKGGSKEYWFVLTAENLSWYKDDEEKEKKYMLSVDNLKLRDVEKGFMSSKHIFALFNTEQRNVYKDYRQLELACETQEEVDSWKASFLRAGVYPERVGDKEKASETEENGSDSFMHSMDPQLERQVETIRNLVDSYMAIVNKTVRDLMPKTIMHLMINNTKEFIFSELLANLYSCGDQNTLMEESAEQAQRRDEMLRMYHALKEALSIIGDINTTTVSTPMPPPVDDSWLQVQSVPAGRRSPTSSPTPQRRAPAVPPARPGSRGPAPGPPPAGSALGGAPPVPSRPGASPDPFGPPPQVPSRPNRAPPGVPSRSGQASPSRPESPRPPFDL |  |  |  |  |  |  | 1858 ± 187 ps |
